{"source": "patent US20230381275A1", "about": "“MUSCULAR FUNCTION IMPROVING AGENT FOR SKELETAL MUSCLE OF WHICH FUNCTION IS DEGRADED DUE TO AGING” (OSAKA UNIVERSITY, priority 2020, published 2023)", "origin": "cited, not measured here", "data": [{"system": "not given", "conditions": "relative to SVVYGLR (SEQ ID NO.: 1); earlier work of the inventors; cited from earlier work", "values": [{"substance": "SVVFGLR [SEQ ID No.: 2]", "angiogenic effect": "maintained"}, {"substance": "SVVWGLR [SEQ ID No.: 3]", "angiogenic effect": "maintained"}, {"substance": "SVVYGL [SEQ ID NO.: 4]", "angiogenic effect": "maintained"}, {"substance": "SVVYGLRG [SEQ ID NO.: 10]", "angiogenic effect": "maintained"}, {"substance": "VVYGLR [SEQ ID NO.: 5]", "angiogenic effect": "maintained"}]}, {"system": "fibroblasts", "conditions": "see Patent Document 1; cited from earlier work", "values": [{"substance": "fragment of osteopontin having SVVYGLR (SEQ ID No.: 1) at the C-terminus: thrombin-cleaved fragment of human osteopontin, or a portion thereof, having the sequence SVVYGLR at the C-terminus", "type III collagen production-promoting effect / type III collagen secretion": "effect equivalent to type III collagen production-promoting effect of SVVYGLR"}]}]}
